Values of other authors as cited in patent US10780172B2, “Docetaxel and human serum albumin complexes” (Zhuhai Beihai Biotech Co., Ltd., priority 2015, dated 2020).
Entries after “also recorded” stand apart in the source; their conditions may differ.

SMILES: CC(=O)O[C@@]12CO[C@@H]1C[C@H](O)[C@@]1(C)C(=O)[C@H](O)C3=C(C)[C@@H](OC(=O)[C@H](O)[C@@H](NC(=O)OC(C)(C)C)c4ccccc4)C[C@@](O)([C@@H](OC(=O)c4ccccc4)[C@H]21)C3(C)C [Docetaxel]
- water solubility: practically insoluble in water; also recorded: very poor water solubility
- potency relative to paclitaxel in inhibiting microtubule depolymerization (microtubule): about twice as potent as paclitaxel
- protein bound (plasma proteins; in vitro studies, mainly to al-acid glycoprotein, albumin, and lipoproteins): about 94%
- in vitro binding to plasma proteins (plasma proteins; three cancer patients): approximately 97%
